Data as given in US10022420B2, “Methods of synthesizing γ-AApeptides, γ-AApeptide building blocks, γ-AApeptide libraries, and γ-AApeptide inhibitors of Aβ40 aggregates” (UNIVERSITY OF SOUTH FLORIDA, priority 2013, dated 2018).

Columns and labels:
N2a neuroblastoma cells = assay: MTT toxicity assay: Aβ42 aggregates on N2a cells; format: cell-based; settings: final Aβ 1 μM, 24 h
Experimental: FIG. 16 is a bar graph illustrating detoxification of Aβ42 aggregates by HW-155-1. N2a cells were cultured with 1 μM of pre-aggregated Aβ42 in the absence/presence of HW-155-1 for 24 h.
The effect of HW-155-1 on the toxicity of Aβ aggregates towards N2a neuroblastoma cells was then examined. […] In contrast, pre-incubation of 0.5 equiv. of HW-155-1 with Aβ42 reduces the death of N2a cells to 25%, while the presence of 1 equiv.
In siliconized tubes, Aβ42 peptide of 10 μM (in F-12 medium) were pre-incubated with 0, 0.5 and 1 equiv. HW-155-1 AApeptide, respectively. These solutions were incubated on rotating shaker (Barnstead 400100) at 8 rpm in 37° C. for 24 h. Meanwhile, N2a cells were plated in 96-well plates (10000 cells/well) with triple replications for 24 h. Then pre-aggregated mixtures were added into each well to make the final Aβ concentration at 1 μM. The plate was incubated for another 24 h. Next, 10 μL MTT reagent was added to the cells. The plate was incubated for 4 h at 37° C. After the addition of 100 μL solubilization solution and incubation overnight, OD values were read at 575 nm. The final cell viability was calculated as: Cell viability %=(OD575−OD blank)/(ODctrl−OD blank)×100%.

Aβ40 [1] = target: T1, Aβ40 (Homo sapiens, UniProt P05067); assay: Transmission electron microscopy (TEM) of Aβ40 fibrils; format: biochemical; settings: HW-155-1 5 μM, 24 h
T1 construct: mouse 6e10 primary antibody which recognizes the first 16 amino acids of Aβ1-40
Experimental: FIGS. 15A-15D are TEM images illustrating monomeric Aβ40 in the absence (FIG. 15A) and presence (FIG. 15B) of HW-155-1 after 24 h and pre-aggregated Aβ40 in the absence (FIG. 15C) and presence (FIG. 15D) of HW-155-1 after 24 h. Bar=[…]; Aβ40 is 2.5 μM; and HW-155-1 is 5 μM. The ability of HW-155-1 to prevent Aβ aggregation was further confirmed by TEM (FIGS. 15A and 15B). In fact, HW-155-1 can even disassemble pre-formed Aβ fibrils (FIGS. 15C and 15D). In these experiments, the Aβ fibrils were not seen for 24 h after incubating HW-155-1 with Aβ40 monomers (prevention of aggregation) and pre-formed Aβ40 aggregates (disassembling aggregation). Aβ40 preparations were adsorbed onto 200-mesh copper grids for 1 hour (until it is dry), and then stained with 1% uranyl acetate for 20 sec. The excess fluid was removed and the grids were analyzed with FEI Morgagni 268D TEM operated at 60 kV.

Aβ40 [2] = target: T1, Aβ40; assay: Thioflavin T (ThT) assay of Aβ40 aggregation; format: biochemical
Experimental: Aggregation control (100%) is set as the change of fluorescence of 2.5 μM Aβ40 in Tris (pH 7.5) buffer. The concentration of ThT is 5 μM. Excitation: 440 nm; emission: 482 nm. These two sequences were investigated for their capability to inhibit the aggregation of Aβ40 by ThT assay. […] Compounds in different concentrations in Tris buffer Saline (TBS, pH 7.5) containing 10 μM ThT were added into a black 96 well plate corning@3721. Aβ40 monomer was freshly thawed and used to make a stock solution in TBS with a concentration of 5 μM. Equal volume of Aβ solution was added into the 96 well palate (final Aβ concentration was 2.5 μM). Time-dependent fluorescence change was monitored by a Synergy 2 plate reader at an excitation wavelength of 440 nm and emission at 482 nm. After 24 h, the fluorescence change was recorded. 100% aggregation is the fluorescence change of 2.5 μM Aβ40 in TBS buffer containing 5 μM ThT.

Aβ40 peptide = target: T2, Aβ40 peptide (Homo sapiens, UniProt P05067); assay: On-bead screening of OBOC γ-AApeptide library against Aβ40 peptide; format: binding; settings: Aβ40 20 ug/mL, 6e10 antibody, anti-mouse IgG-dylight 549
T2 construct: mouse 6e10 primary antibody which recognizes the first 16 amino acids of Aβ1-40
Experimental: The γ-AApeptide library was screened to identify ligands that can bind to Aβ. The anti-aggregation efficiency of identified ligands was determined by functional assay afterwards. Thus, beads were incubated with the Aβ40 peptide, followed by the treatment of anti-Aβ antibody 6E10 (FIG. 10). Then, anti-mouse IgG-dylight 549 conjugate was added. Dylight 549 produces strong orange fluorescence, a region in which TentaGel beads have low background fluorescence (see Aquino, C. supra, 4, which is incorporated by reference herein regarding properties of TentaGel beads). The dye is also much less expensive than quantum dots. […]
In order to avoid any possible nonspecific binding, both the Aβ and antibodies solution were made in 1% BSA/TBST blocking buffer. […] The beads were washed with PBST completely and transferred into a 6-well plate to be observed under Zeiss inverted fluorescence microscope 10×43HE filter, and the orange bright beads were picked up for they had suspicious nonspecific binding.
The rest of the beads were pulled together, washed with PBST, and then treated with 1% SDS at 90° C. for ten minutes to remove any bound proteins. […] After washing and equilibrating in TBST overnight, the beads were ready for actual Aβ screening. […]
The beads were collected and washed with 1×PBST three times. […] Washed with water, DMSO, and acetonitrile, beads were then cleaved and analyzed using previous procedure. […]

T1 sequence (P05067 672-711 limits assumed): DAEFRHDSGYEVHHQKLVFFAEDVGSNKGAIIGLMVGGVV
T2 sequence (P05067 672-711 limits assumed): as above

C=CCOC(=O)N(CC(=O)N[C@@H](Cc1ccccc1)CN(CC(=O)N[C@@H](CCCCN)CN(CC(=O)N[C@@H](CC(C)C)CN(CC(N)=O)C(=O)CC(C)C)C(=O)CC(C)C)C(=O)CCc1ccccc1)C[C@@H](N)CCCCN [HW-155-1]
death of N2a cells (N2a neuroblastoma cells; 0.5 equiv. compound pre-incubated with Aβ42, Aβ42 alone kills 30%): 25% | toxicity of Aβ42 / death of N2a cells (N2a neuroblastoma cells; 1 equiv. compound pre-incubated with Aβ42): almost completely removes the toxicity | Aβ fibrils by TEM, prevention of aggregation (Aβ40 [1]; Aβ40 monomers 2.5 μM): not seen | Aβ fibrils by TEM, disassembling aggregation (Aβ40 [1]; pre-formed Aβ40 aggregates 2.5 μM): not seen | inhibition at 1 µM (Aβ40 [2]; 1 μM compound, 2.5 μM Aβ40, first 2 h of incubation (FIG. 14B), read-out: inhibition of Aβ aggregation): ~50% | potency relative to KLVFF (Aβ40 [2]; ThT assay, Aβ40): at least 100 fold | on-bead binding to Aβ40 (screening outcome) (Aβ40 peptide): hit
